Measurements reported in patent US20180177860A1, “VACCINE […] I[…] GREEN TEA EXTRACT, AND PREPARATION METHOD THEREFOR” (priority 2015, published 2018).

What was measured:
[1] = 37% formaldehyde; cited from earlier work
[2] = biological target: T1, influenza hemagglutinin protein (Influenza A virus, UniProt P03452); test: LCMS/MS of hemagglutinin protein reacted with EGCG; details: EGCG modified in the form of dihydro epigallocatechin (C15H11O6)
T1 construct: host or cells: human cells
Method: In addition, the hemagglutinin protein reacted with EGCG was analyzed through liquid chromatography mass spectrometry (LCMS/MS). The protein bands stained with Coomassie blue were separated by in-gel digestion, subjected to alkylation and de-staining processes, and then prepared into peptide fragments using trypsin. The prepared peptide fragments were analyzed using LCMS/MS [(Q-Exactive mass spectrometer (Thermo Fisher Scientific, Bremen, Germany) coupled with an Easy-nLC system (Thermo Fisher Scientific, Odense, Denmark)].

T1 sequence (P03452 18-565): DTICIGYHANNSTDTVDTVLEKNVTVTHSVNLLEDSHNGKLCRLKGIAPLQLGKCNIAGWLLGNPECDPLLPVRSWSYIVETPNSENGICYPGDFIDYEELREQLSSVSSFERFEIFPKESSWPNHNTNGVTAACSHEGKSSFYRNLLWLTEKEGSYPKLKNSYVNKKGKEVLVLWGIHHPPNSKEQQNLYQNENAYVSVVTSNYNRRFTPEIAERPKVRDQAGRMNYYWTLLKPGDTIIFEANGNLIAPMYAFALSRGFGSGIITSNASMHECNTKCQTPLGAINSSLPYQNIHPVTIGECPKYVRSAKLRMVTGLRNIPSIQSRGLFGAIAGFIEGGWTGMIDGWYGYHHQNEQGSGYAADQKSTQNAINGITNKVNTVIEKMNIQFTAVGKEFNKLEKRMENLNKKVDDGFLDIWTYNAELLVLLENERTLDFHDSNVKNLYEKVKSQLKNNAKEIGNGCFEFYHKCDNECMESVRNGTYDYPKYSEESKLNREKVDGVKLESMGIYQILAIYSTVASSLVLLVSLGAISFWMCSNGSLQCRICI

Row | Compound | amount that can lead to death in adults [1] [mL] | binding site of EGCG on hemagglutinin (LCMS/MS) [2]
1 | C=O [formaldehyde] | 30 | –
2 | (−)-epigallocatechin gallate [EGCG] | – | bound to the cysteine residue, which is the 152nd amino acid of the influenza hemagglutinin protein
